# Reference: US12186303B2, “Feed additive for cattle comprising n-acetyl-l-tryptophan as active ingredient” (CJ CHEILJEDANG CORPORATION, priority 2018, dated 2025)
# Legend:
# Assay type in all cases: in vivo, Korean native cattle
# Korean native steers [1] = assay: Feed intake according to NALT feeding under cold stress conditions; conditions: for Feed intake: 0.1% NALT
# Excerpt: After grouping the animals by statistical analysis of initial body weights, the animals were bred in 1.0×1.5 m^2 individual pens during the experiment period. The feed was offered based on an amount of dry matter of daily total mixed ration (TMR) per head. After 7 days of an adaptation period for N-acetyl-L-tryptophan (NALT), a mixture of 0.1% N-acetyl-L-tryptophan (NALT) and the total mixed ration was fed to individual animals every morning at 8 a.m. for 6 weeks, and water was available ad libitum. Total amounts of L-tryptophan ingested by the control and NALT-treated group by feeding NALT were 7.37 g/day/head and 16.26 g/day/head, respectively. The experiment was performed such that the NALT-treated group ingested 8.89 g/day/head more L-tryptophan than that of the control. Meanwhile, results of growth performance analysis (body weight and average feed intake) and genetic analysis of loin tissue were obtained by statistically comparing and analyzing significant differences between the control and the NALT-treated group, and results of hematological analysis were obtained via statistical comparison and analysis depending on NALT treatment, experiment period (days), and interaction (treatment×days). These numerical values were expressed as average values, and a significance test was performed at the 5% level using Student's t-test by using the JMP 5.0 software package (SAS Institute Inc., Cary, NC, USA). Feed intake of each sentinel animal was calculated by measuring a total amount of feed offered and an amount left over every day.
# Korean native steers [2] = assay: Feed intake and drinking water intake according to NALT feeding under heat stress conditions; conditions: for Drinking water intake / Feed intake: 0.1% NALT
# Excerpt: (§1) After grouping the animals by statistical analysis of initial body weights, the animals were bred in 1.0×1.5 m^2 individual pens during the experiment period. The feed was offered based on an amount of dry matter of daily total mixed ration (TMR) per head. After 7 days of an adaptation period for N-acetyl-L-tryptophan (NALT), a mixture of 0.1% N-acetyl-L-tryptophan (NALT) and the total mixed ration was fed to individual animals every morning at 8 a.m. for 6 weeks, and water was available ad libitum. Total amounts of L-tryptophan ingested by the control and the experimental group (NALT-treated group) by feeding NALT were 6.0 g/day/head and 18.2 g/day/head, respectively. The experiment was performed such that the NALT-treated group ingested 12.2 g/day/head more L-tryptophan than the control.
# (§2) Meanwhile, results of growth performance analysis (body weight and average feed intake) and genetic analysis of loin tissue were obtained by statistically comparing and analyzing significant differences between the control and the NALT-treated group, and results of hematological analysis were obtained via statistical comparison and analysis depending on NALT treatment, experiment period (days), and interaction (treatment×days). These numerical values were expressed as average values, and a significance test was performed at the 5% level using Student's t-test by using a JMP 5.0 software package (SAS Institute Inc., Cary, NC, USA).
# Temperature (° C.) and relative humidity (%) were recorded every day during a one-week adaptation period and a 6-week experiment period using a portable temperature and humidity meter. Average temperature and average relative humidity of each week were calculated using the temperature and relative humidity recorded during the total experiment period. In addition, a temperature-humidity index (THI) was calculated using temperature and humidity as shown in the following equation, and heat stress state may be diagnosed using the THI as an index feature of a heat load. THI=(1.8×T+32)−[0.55−0.0055×RH)×(1.8×T−26.8)
# Feed intake of each sentinel animal was calculated by measuring a total amount of feed offered and an amount left over every day, and drinking water intake thereof was calculated every day by measuring a total amount of drinking water offered and an amount left over. Also, since the amount of feed left over was measured in pen units, DMI/BW % was calculated using the equation DMI/BW %=1.2425+1.9218×NEm−0.7259×(NEm)^2 and corrected using actual data of the experiment to calculate data for each of the two heads included in each pen. Analysis results of changes in feed intake and drinking water intake of the control and the NALT-treated group are shown in Table 12. […] Based thereon, it may be interpreted that the feed intake of cattle fed with NALT increased compared with the control without having increased drinking water intake even under heat stress conditions.
# Korean native steers [3] = assay: Serum hematological properties (biochemical autoanalyzer) under heat stress conditions; parameters: GLO (globulin = TP − ALB) / BUN (blood urea nitrogen) / GLU (glucose) / NEFA (non-esterified fatty acid) / TG (triglyceride) / Na (sodium): unit not given here; conditions: for ALB (albumin) / BUN (blood urea nitrogen) / CPK (creatinine phosphokinase) / GLO (globulin = TP − ALB) / GLU (glucose) / K (potassium) / NEFA (non-esterified fatty acid) / Na (sodium) / TG (triglyceride) / TP (total protein): 0.1% NALT, serum
# Excerpt: as §1, §2
# Blood samples were collected from a jugular vein of each sentinel animal before offering the feed at the starting day of the experiment (week 0), the mid-point of the experiment (week 5), and the final day of the experiment (week 10) and stored in a vacutainer (Becton Dickinson, Franklin Lakes, NJ, USA). Complete blood cell count (CBC) was performed using whole blood using a VetScan HM2 (Abaxis, Union City, CA, USA), and hematological properties were identified using serum with a biochemical autoanalyzer (FUJI DRI-CHEM 7000, Fujifilm, Tokyo, Japan). In addition, total protein (TP), albumin (ALB), creatinine phosphokinase (CPK), and blood urea nitrogen (BUN), which are related to blood protein metabolism, were analyzed; triglycerides (TG) and non-esterified fatty acid (NEFA), which are related to energy metabolism, were analyzed; and sodium (Na), chlorine (CI), and potassium (K), which are blood electrolytes, were analyzed.
smiles,measurement,setting,value
"CC(=O)N[C@@H](Cc1c[nH]c2ccccc12)C(=O)O [NALT, N-acetyl-L-tryptophan]",Feed intake,Korean native steers [1]; Days 0-6 (adaptation period),8.56 kg
same,Feed intake,Korean native steers [1]; Days 7-13,9.21 kg
same,Feed intake,Korean native steers [1]; Days 7-48 (entire experiment period),9.86 kg
same,Feed intake,Korean native steers [1]; Days 14-20,9.56 kg
same,Feed intake,Korean native steers [1]; Days 21-27,9.68 kg
same,Feed intake,Korean native steers [1]; Days 28-34,10.22 kg
same,Feed intake,Korean native steers [1]; Days 35-41,10.02 kg
same,Feed intake,Korean native steers [1]; Days 42-48,10.56 kg
same,Feed intake compared with the control,Korean native steers [1]; adaptation period (days 0-6),No statistically significant difference
same,Feed intake compared with the control,Korean native steers [1]; days 7-41,no statistically significant difference
same,Increase in average feed intake per head compared to the control,Korean native steers [1]; days 7-48,about 4.6%
same,Increase in feed intake compared to the control,Korean native steers [1]; days 42-48,about 1.02 kg
same,Average feed intake per head,Korean native steers [1]; entire experiment period (days 7-48),9.86 kg/day/head
same,Drinking water intake,Korean native steers [2]; THIavg < 80,35.3 kg
same,Feed intake,Korean native steers [2]; THIavg < 80,13.7 kg
same,Drinking water intake,Korean native steers [2]; THIavg > 80,44.6 kg
same,Feed intake,Korean native steers [2]; THIavg > 80,13.5 kg
same,Feed intake compared to the control,Korean native steers [2]; THI of 80 or more,significantly increased
same,Average feed intake,Korean native steers [2]; entire experiment period,13.62 kg/day
same,Average feed intake compared with the control,Korean native steers [2]; entire experiment period,no statistically significant difference
same,Drinking water intake compared with the control,Korean native steers [2]; regardless of THI conditions,statistically significant decrease
same,"Hematological analysis indicators (Table 14), effect of treatment with 0.1% NALT",Korean native steers [3],No statistically significant difference
same,ALB (albumin),Korean native steers [3]; Day 0,3.3
same,BUN (blood urea nitrogen),Korean native steers [3]; Day 0,16.7
same,CPK (creatinine phosphokinase),Korean native steers [3]; Day 0,112
same,GLO (globulin = TP − ALB),Korean native steers [3]; Day 0,2.8
same,GLU (glucose),Korean native steers [3]; Day 0,49.6
same,K (potassium),Korean native steers [3]; Day 0,4.7
same,NEFA (non-esterified fatty acid),Korean native steers [3]; Day 0,139
same,Na (sodium),Korean native steers [3]; Day 0,141.3
same,TG (triglyceride),Korean native steers [3]; Day 0,25.5
same,TP (total protein),Korean native steers [3]; Day 0,6.1
same,ALB (albumin),Korean native steers [3]; Day 35,3.6
same,BUN (blood urea nitrogen),Korean native steers [3]; Day 35,19.8
same,CPK (creatinine phosphokinase),Korean native steers [3]; Day 35,267
same,GLO (globulin = TP − ALB),Korean native steers [3]; Day 35,2.9
same,GLU (glucose),Korean native steers [3]; Day 35,39.1
same,K (potassium),Korean native steers [3]; Day 35,4.8
same,NEFA (non-esterified fatty acid),Korean native steers [3]; Day 35,167
same,Na (sodium),Korean native steers [3]; Day 35,142.6
same,TG (triglyceride),Korean native steers [3]; Day 35,19.1
same,TP (total protein),Korean native steers [3]; Day 35,6.5
same,ALB (albumin),Korean native steers [3]; Day 70,3.5
same,BUN (blood urea nitrogen),Korean native steers [3]; Day 70,18.5
same,CPK (creatinine phosphokinase),Korean native steers [3]; Day 70,276
same,GLO (globulin = TP − ALB),Korean native steers [3]; Day 70,2.9
same,GLU (glucose),Korean native steers [3]; Day 70,56.3
same,K (potassium),Korean native steers [3]; Day 70,4.9
same,NEFA (non-esterified fatty acid),Korean native steers [3]; Day 70,168
same,Na (sodium),Korean native steers [3]; Day 70,141.1
same,TG (triglyceride),Korean native steers [3]; Day 70,22.1
same,TP (total protein),Korean native steers [3]; Day 70,6.3
